In the oligonucleotide strings, read from the 5' end, every base follows the letter of its sugar. An asterisk marks phosphorothioate; unmarked linkages are phosphodiester. Other units and linkages are bracketed, terminal groups are in braces. A string of capitals states the bases alone. {NAG37} = tridentate N-acetyl-galactosamine targeting ligand, structure (NAG37)s; [invAb] = inverted abasic unit; m = 2'-O-methyl; f = 2'-fluoro
Tests used:
ANGPTL3 gene [1] = assay: Example 4: serum HDL in mice; format: in vivo, C57bl/6 mice
Method: (§1) To assess the in vivo activity of ANGPTL3 RNAi agents that are designed to target additional positions on the ANGPTL3 gene, six- to eight-week-old female C57bl/6 mice were used. Pre-dose serum samples were taken at day −1 after a four hour fast. At day 1, each mouse was given a single subcutaneous administration of 200 μl containing either 1 mg/kg (mpk) or 0.5 mg/kg (mpk) of an ANGPTL3 RNAi agent in D5W (dextrose in 5% water), or control (D5W) with no RNAi agent, according to the dosing groups recited in Table 17.
(§2) Each of the RNAi agents included a modified sequence and an N-acetyl-galactosamine-containing targeting ligand conjugated to the 5′ terminal end of the sense strand. (See Tables 3, 4, and 5 for modified sequences and targeting ligand structures). The injections were performed between the skin and muscle (i.e. subcutaneous injections) into the loose skin over the neck and shoulder area. Three (3) mice in each group were tested (n=3). Serum was collected on days 8, 15, 22, 29, and day 43 (Groups 1-3, 9, and 11-13 only). Mice were fasted for four hours prior to each collection. ANGPTL3 protein levels in serum were measured by ELISA assay (R&D Systems), according to the manufacturer's recommendations. Triglycerides, high-density lipoprotein (HDL), and total cholesterol in serum were measured on a Cobas® Integra 400 (Roche Diagnostics), according to the manufacturer's recommendations.
(§3) The ANGPTL3 protein levels, triglyceride levels, HDL levels, and total cholesterol levels for each animal were normalized. For normalization, the level of ANGPTL3 protein, triglyceride, HDL, and total cholesterol, respectively, for each animal at a time point, was divided by the pre-treatment level of expression in that animal (in this case at day −1) to determine the ratio of expression “normalized to pre-treatment.” Expression at a specific time point was then normalized to the D5W control group by dividing the “normalized to pre-treatment” ratio for an individual animal by the mean “normalized to pretreatment” ratio of all mice in the D5W control group.

ANGPTL3 gene [2] = assay: Example 4: serum LDL in mice; format: in vivo, C57bl/6 mice; settings: for Avg LDL, normalized to pre-treatment and control: 1.0 mg/kg single SC injection on day 1, serum, n=3
Method: as §1, §2, §3

ANGPTL3 gene [3] = assay: Example 4: serum triglycerides in mice; format: in vivo
Method: as §1, §2, §3

ANGPTL3 protein [4] = assay: Example 4: serum ANGPTL3 protein by ELISA in mice; format: in vivo, C57bl/6 mice; settings: for Avg ANGPTL3 (Average ANGPTL3 Protein Normalized to Pre-Treatment and Control): 1.0 mg/kg single subcutaneous dose on day 1, serum, female C57bl/6 mice
Method: as §1, §2, §3

ANGPTL3 gene [5] = assay: Example 4: serum total cholesterol in mice; format: in vivo, C57bl/6 mice
Method: as §1, §2, §3

ANGPTL3 protein [6] = assay: Example 7: serum ANGPTL3 protein by ELISA in mice; format: in vivo, C57bl/6 mice; parameters: key: ratio: (level/pre-treatment day -1 level) ÷ mean of D5W control group
Method: (§4) To further assess the in vivo activity of additional ANGPTL3 RNAi agents that are designed to target position 304 on the ANGPTL3 gene, six- to eight-week-old female C57bl/6 mice were used. Pre-dose serum samples were taken at day −1 after a four hour fast. At day 1, each mouse was given a single subcutaneous administration of 200 μl containing 0.5 mg/kg (mpk) of an ANGPTL3 RNAi agent in D5W (dextrose in 5% water), or control (D5W) with no RNAi agent, according to the dosing groups recited in Table 31.
as §2, with “22,” for “22, 29,”, “29.” for “day 43 (Groups 1-3, 9, and 11-13 only).”, “Triglycerides, total cholesterol,” for “Triglycerides,”, “low-density lipoprotein (LDL)” for “total cholesterol”
(§5) The ANGPTL3 protein levels, triglyceride levels, total cholesterol levels, HDL levels, and LDL levels for each animal were normalized. For normalization, the level of ANGPTL3 protein, triglyceride, HDL, and total cholesterol, respectively, for each animal at a time point, was divided by the pre-treatment level of expression in that animal (in this case at day −1) to determine the ratio of expression “normalized to pre-treatment.” Expression at a specific time point was then normalized to the D5W control group by dividing the “normalized to pre-treatment” ratio for an individual animal by the mean “normalized to pretreatment” ratio of all mice in the D5W control group.

ANGPTL3 gene [7] = assay: Example 7: serum HDL in mice; format: in vivo; parameters: key: ratio: (level/pre-treatment day -1 level) ÷ mean of D5W control group; settings: 0.5 mg/kg single SC injection day 1, female C57bl/6 mice, n=3, ratio to D5W control
Method: as §4
as §2, with “22,” for “22, 29,”, “29.” for “day 43 (Groups 1-3, 9, and 11-13 only).”, “Triglycerides, total cholesterol,” for “Triglycerides,”, “low-density lipoprotein (LDL)” for “total cholesterol”
as §5

ANGPTL3 gene [8] = assay: Example 7: serum total cholesterol in mice; format: in vivo, C57bl/6 mice; parameters: key: ratio: (level/pre-treatment day -1 level) ÷ mean of D5W control group
Method: as §4
as §2, with “22,” for “22, 29,”, “29.” for “day 43 (Groups 1-3, 9, and 11-13 only).”, “Triglycerides, total cholesterol,” for “Triglycerides,”, “low-density lipoprotein (LDL)” for “total cholesterol”
as §5

ANGPTL3 gene [9] = assay: Example 7: serum triglycerides in mice; format: in vivo, C57bl/6 mice; parameters: key: ratio: (level/pre-treatment day -1 level) ÷ mean of D5W control group
Method: as §4
as §2, with “22,” for “22, 29,”, “29.” for “day 43 (Groups 1-3, 9, and 11-13 only).”, “Triglycerides, total cholesterol,” for “Triglycerides,”, “low-density lipoprotein (LDL)” for “total cholesterol”
as §5

ANGPTL3 gene [10] = assay: Example 7: serum LDL in mice; format: in vivo; parameters: key: ratio: (level/pre-treatment day -1 level) ÷ mean of D5W control group; settings: 0.5 mg/kg single SC injection day 1, female C57bl/6 mice, n=3, ratio to D5W control
Method: as §4
as §2, with “22,” for “22, 29,”, “29.” for “day 43 (Groups 1-3, 9, and 11-13 only).”, “Triglycerides, total cholesterol,” for “Triglycerides,”, “low-density lipoprotein (LDL)” for “total cholesterol”
as §5

[11] = Day 8, 1.0 mg/kg single SC injection on day 1, n=3
[12] = Day 15, 1.0 mg/kg single SC injection on day 1, n=3
[13] = Day 22, 1.0 mg/kg single SC injection on day 1, n=3
[14] = Day 29, 1.0 mg/kg single SC injection on day 1, n=3
[15] = Day 43, 1.0 mg/kg single SC injection on day 1, n=3
[16] = Day 8, 0.5 mg/kg single SC injection on day 1, n=3
[17] = Day 15, 0.5 mg/kg single SC injection on day 1, n=3
[18] = Day 22, 0.5 mg/kg single SC injection on day 1, n=3
[19] = Day 29, 0.5 mg/kg single SC injection on day 1, n=3

AD05487: RNAi agent duplex: antisense AM07233-AS, sense AM07232-SS (antisense mU*fA*mC*fUmGfAmUfCmAfAmAfUmAfUmGfUmUfGmAfG*mU; sense {NAG37}*[invAb]*mAmCmUmCmAmAmCmAfUfAfUmUmUmGmAmUmCmAmGmUmA*[invAb])
Avg HDL, normalized to pre-treatment and control (ANGPTL3 gene [1]; [11]): 0.716 | Avg HDL, normalized to pre-treatment and control (ANGPTL3 gene [1]; [12]): 0.918 | Avg HDL, normalized to pre-treatment and control (ANGPTL3 gene [1]; [13]): 0.658 | Avg HDL, normalized to pre-treatment and control (ANGPTL3 gene [1]; [14]): 0.745 | Avg HDL, normalized to pre-treatment and control (ANGPTL3 gene [1]; [15]): 0.934 | Avg LDL, normalized to pre-treatment and control (ANGPTL3 gene [2]; Day 8): 0.916 | Avg LDL, normalized to pre-treatment and control (ANGPTL3 gene [2]; Day 15): 1.125 | Avg LDL, normalized to pre-treatment and control (ANGPTL3 gene [2]; Day 22): 0.845 | Avg LDL, normalized to pre-treatment and control (ANGPTL3 gene [2]; Day 29): 0.744 | Avg LDL, normalized to pre-treatment and control (ANGPTL3 gene [2]; Day 43): 0.989 | LDL levels reduced (ANGPTL3 gene [2]; day 29, single 1 mg/kg subcutaneous, C57bl/6 mice): ~20% | Avg TG (Average Triglycerides Normalized to Pre-Treatment and Control) (ANGPTL3 gene [3]; Day 8, 1.0 mg/kg single subcutaneous dose on day 1, female C57bl/6 mice): 0.776 | Avg TG (Average Triglycerides Normalized to Pre-Treatment and Control) (ANGPTL3 gene [3]; Day 15, 1.0 mg/kg single subcutaneous dose on day 1, female C57bl/6 mice): 0.912 | Avg TG (Average Triglycerides Normalized to Pre-Treatment and Control) (ANGPTL3 gene [3]; Day 22, 1.0 mg/kg single subcutaneous dose on day 1, female C57bl/6 mice): 0.761 | Avg TG (Average Triglycerides Normalized to Pre-Treatment and Control) (ANGPTL3 gene [3]; Day 29, 1.0 mg/kg single subcutaneous dose on day 1, female C57bl/6 mice): 0.556 | Avg TG (Average Triglycerides Normalized to Pre-Treatment and Control) (ANGPTL3 gene [3]; Day 43, 1.0 mg/kg single subcutaneous dose on day 1, female C57bl/6 mice): 0.757 | Avg ANGPTL3 (Average ANGPTL3 Protein Normalized to Pre-Treatment and Control) (ANGPTL3 protein [4]; Day 8): 0.173 | Avg ANGPTL3 (Average ANGPTL3 Protein Normalized to Pre-Treatment and Control) (ANGPTL3 protein [4]; Day 15): 0.170 | Avg ANGPTL3 (Average ANGPTL3 Protein Normalized to Pre-Treatment and Control) (ANGPTL3 protein [4]; Day 22): 0.138 | Avg ANGPTL3 (Average ANGPTL3 Protein Normalized to Pre-Treatment and Control) (ANGPTL3 protein [4]; Day 29): 0.226 | Avg ANGPTL3 (Average ANGPTL3 Protein Normalized to Pre-Treatment and Control) (ANGPTL3 protein [4]; Day 43): 0.477 | ANGPTL3 protein normalized to pre-treatment and control (ANGPTL3 protein [4]; day 15, single 1 mg/kg subcutaneous, C57bl/6 mice): 0.170 | ANGPTL3 protein normalized to pre-treatment and control (ANGPTL3 protein [4]; day 22, single 1 mg/kg subcutaneous, C57bl/6 mice): 0.138 | knockdown of ANGPTL3 protein (ANGPTL3 protein [4]; days 15 and 22, single 1 mg/kg subcutaneous, C57bl/6 mice): ~75% | Avg Total Chol, normalized to pre-treatment and control (ANGPTL3 gene [5]; [11]): 0.728 | Avg Total Chol, normalized to pre-treatment and control (ANGPTL3 gene [5]; [12]): 0.944 | Avg Total Chol, normalized to pre-treatment and control (ANGPTL3 gene [5]; [13]): 0.697 | Avg Total Chol, normalized to pre-treatment and control (ANGPTL3 gene [5]; [14]): 0.560 | Avg Total Chol, normalized to pre-treatment and control (ANGPTL3 gene [5]; [15]): 0.923

AD05777: RNAi agent duplex: antisense AM07235-AS, sense AM07610-SS (antisense UACUGAUCAAAUAUGUUGAGC; sense GCUCAACNUNUUUGAUCAGUA; (NAG37)s GalNAc ligand; RNAi agent antisense strand modified sequence; RNAi agent sense strand modified sequence; modified_base 8, 10 n = 2′-O-methyl-2-aminoadenosine-3′-phosphate)
Avg ANGPTL3, normalized to pre-treatment and control (ANGPTL3 protein [6]; [16]): 0.297 | Avg ANGPTL3, normalized to pre-treatment and control (ANGPTL3 protein [6]; [17]): 0.246 | Avg ANGPTL3, normalized to pre-treatment and control (ANGPTL3 protein [6]; [18]): 0.257 | Avg ANGPTL3, normalized to pre-treatment and control (ANGPTL3 protein [6]; [19]): 0.345 | Avg HDL, normalized to pre-treatment and control (ANGPTL3 gene [7]; Day 8): 0.784 | Avg HDL, normalized to pre-treatment and control (ANGPTL3 gene [7]; Day 15): 0.768 | Avg HDL, normalized to pre-treatment and control (ANGPTL3 gene [7]; Day 22): 0.801 | Avg HDL, normalized to pre-treatment and control (ANGPTL3 gene [7]; Day 29): 1.008 | Avg Total Chol, normalized to pre-treatment and control (ANGPTL3 gene [8]; [16]): 0.797 | Avg Total Chol, normalized to pre-treatment and control (ANGPTL3 gene [8]; [17]): 0.800 | Avg Total Chol, normalized to pre-treatment and control (ANGPTL3 gene [8]; [18]): 0.794 | Avg Total Chol, normalized to pre-treatment and control (ANGPTL3 gene [8]; [19]): 0.995 | Avg TG, normalized to pre-treatment and control (ANGPTL3 gene [9]; [16]): 0.755 | Avg TG, normalized to pre-treatment and control (ANGPTL3 gene [9]; [17]): 0.702 | Avg TG, normalized to pre-treatment and control (ANGPTL3 gene [9]; [18]): 0.700 | Avg TG, normalized to pre-treatment and control (ANGPTL3 gene [9]; [19]): 0.648 | Avg LDL, normalized to pre-treatment and control (ANGPTL3 gene [10]; Day 8): 0.886 | Avg LDL, normalized to pre-treatment and control (ANGPTL3 gene [10]; Day 15): 0.869 | Avg LDL, normalized to pre-treatment and control (ANGPTL3 gene [10]; Day 22): 0.966 | Avg LDL, normalized to pre-treatment and control (ANGPTL3 gene [10]; Day 29): 1.224

— patent US12729377B2, “RNAi agents and compositions for inhibiting expression of angiopoietin-like 3 (ANGPTL3), and methods of use” (Arrowhead Pharmaceuticals, Inc., priority 2017, dated 2026)
